According to patent US10472395B2, “Cyclic peptide analogs and conjugates thereof” (Sirenas LLC, priority 2015, dated 2019):
Numbered stars: 1 amine (or outer) side, 2 acyl side, 3 side chain; on linkers, the order of the positions; unused ones are H or OH. Bridge positions count the residues as written; N and C are the ends. Square brackets hold non-standard residues; d marks the D form. Peptide text beside a SMILES is read from it. ξ: configuration not given here. X6 = C/C=C(\C)[C@@H](O[*:2])[C@@H](C)[C@H](C/C=C(\C)C(=O)[*:1])OCSC; X3 = C/C=C(\C)[C@@H](O[*:2])[C@@H](C)[C@@H](O)C/C=C(\C)C(=O)[*:1]; X10 = C/C(=C\CCCCO[*:2])C(=O)[*:1]; X9 = C/C(=C\CCCO[*:2])C(=O)[*:1]; aIle = CC[C@@H](C)[C@H](N)C(=O)O; dNMeF = CN[C@H](Cc1ccccc1)C(=O)O; Ile(3ξ) = CCC(C)[C@H](N)C(=O)O; dHica = CC(C)C[C@@H](O)C(=O)O; dNMeA = CN[C@H](C)C(=O)O; Sar = CNCC(=O)O

Key:
[1] = system: BT-474 human mammary gland ductal carcinoma cells; assay: Inhibitory response of test compounds against BT-474 cells (Cell Titer-Glo, 72 h); type: cell-based; conditions: Homo sapiens
Method: (§1) BT-474 human mammary gland ductal carcinoma cells were seeded in a clear polystyrene 96-well microculture plate (Corning® Costar® 96-well flat bottom plate, Cat.#3997) in a total volume of 90 μL/well. After 24 hours of incubation in a humidified incubator at 37° C. with 5% CO2 and 95% air, 10 μL of 10×, serially diluted test agents in growth medium were added to each well (10 pt dose response curve, highest concentration 10 μM of test agent). After 72 hours of culture in a humidified incubator at 37° C., in an atmosphere of 5% CO2 and 95% air, the plated cells and Cell Titer-Glo® (Promega G7571) reagents were brought to room temperature to equilibrate for 30 minutes. 100 μL of Cell Titer-Glo® reagent was added to each well. The plate was shaken for two minutes and then left to equilibrate for ten minutes. The media/Cell Titer-Glo® reagent was transferred to a white polystyrene 96-well microculture plate (Corning® Costar® 96-well flat bottom plate, Cat.#3917) before reading luminescence on a Tecan GENios microplate reader.
(§2) Percent inhibition of cell growth was calculated relative to untreated control wells. The IC50 value for the test agents was determined using Prism 6.05 by curve-fitting of the data using the following four parameter-logistic equation:
(§3) [formula] where Top is the maximal % of control absorbance, Bottom is the minimal % of control absorbance at the highest agent concentration, Y is the % of control absorbance, X is the agent concentration, IC50 is the concentration of agent that inhibits cell growth by 50% compared to the control cells, and n is the slope of the curve.

[2] = system: HCC1954 cells; assay: Inhibitory response of test compounds against HCC1954 cells (method analogous to BT-474); type: cell-based; conditions: Homo sapiens
Method: as §1, §2, §3
Inhibitory response of test compounds against HCC1954 cells was determined using a method analogous to that used for BT-474 cells.

| Compound | IC50 [1] | IC50 [2] | IC50 ([1]; 72 h, Cell Titer-Glo) |
| --- | --- | --- | --- |
| C/C=C(\C)[C@H]1OC(=O)[C@@H](C)NC(=O)[C@H](C(C)CC)NC(=O)CN(C)C(=O)[C@@H](Cc2ccccc2)N(C)C(=O)[C@H](C)NC(=O)[C@@H](CC(C)C)NC(=O)/C(C)=C/C[C@H](O)[C@@H]1C (stereo partly drawn) [Compound 63] ([dL]A[dNMeF][Sar][Ile(3ξ)][dA]; linker N-C via X3) | < 20 nM | 20 to 200 nM |  |
| C/C=C(\C)[C@H]1OC(=O)[C@@H](C)NC(=O)[C@H](C(C)CC)NC(=O)CN(C)C(=O)[C@@H](Cc2ccc(Cl)cc2)N(C)C(=O)[C@H](C)NC(=O)[C@@H](CC(C)C)OC(=O)/C(C)=C/C[C@H](O)[C@@H]1C (some centres unmarked) [Compound 21] | < 20 nM | < 20 nM |  |
| C/C=C(\C)[C@H]1OC(=O)[C@@H](C)NC(=O)[C@H](C(C)CC)NC(=O)CN(C)C(=O)[C@@H](Cc2ccccc2)N(C)C(=O)[C@H](C)NC(=O)[C@@H](CC(C)C)OC(=O)/C(C)=C/C[C@H](OC(=O)NCCCOCCOCCOCCCN)[C@@H]1C (some centres unmarked) [Compound 108] | 20 to 200 nM | 200 to 10000 nM |  |
| C/C=C(\C)[C@H]1OC(=O)[C@@H](C)NC(=O)[C@H]([C@H](C)CC)NC(=O)CN(C)C(=O)[C@@H](Cc2ccccc2)N(C)C(=O)[C@H](C)NC(=O)[C@@H](CC(C)C)OC(=O)/C(C)=C/C[C@H](OC(=O)N(C)CCN(C)C=O)[C@@H]1C [Compound 114] | < 20 nM | 20 to 200 nM |  |
| C/C=C(\C)[C@H]1OC(=O)[C@@H](C)NC(=O)[C@H](C(C)CC)NC(=O)CN(C)C(=O)[C@@H](Cc2ccc(O)cc2)N(C)C(=O)[C@H](C)NC(=O)[C@@H](CC(C)C)OC(=O)/C(C)=C/CC[C@@H]1C (some centres unmarked) [Compound 102] | < 20 nM | 20 to 200 nM |  |
| C/C=C(\C)[C@H]1OC(=O)[C@@H](CCCCN)NC(=O)[C@H]([C@H](C)CC)NC(=O)CN(C)C(=O)[C@@H](Cc2ccccc2)N(C)C(=O)[C@H](C)NC(=O)[C@@H](CC(C)C)NC(=O)/C(C)=C/C[C@H](OCSC)[C@@H]1C [Compound 83] ([dL]A[dNMeF][Sar][aIle][dK]; linker N-C via X6) | > 10000 nM | > 10000 nM |  |
| CCC(C)[C@@H]1NC(=O)CN(C)C(=O)[C@@H](Cc2ccccc2)N(C)C(=O)[C@H](C)NC(=O)[C@@H](CC(C)C)OC(=O)/C(C)=C/CCCCOC(=O)[C@@H](C)NC1=O (some centres unmarked) [Compound 13] ([dHica]A[dNMeF][Sar][Ile(3ξ)][dA]; linker N-C via X10) | > 10000 nM |  |  |
| C/C=C(\C)[C@H]1OC(=O)[C@@H](C)NC(=O)[C@H](C(C)CC)NC(=O)CN(C)C(=O)[C@@H](Cc2ccccc2)N(C)C(=O)[C@H](C)NC(=O)[C@@H](CC(C)C)OC(=O)/C(C)=C/C[C@H](O)[C@H]1C (some centres unmarked) [Compound 20] | 200 to 10000 nM |  | 389 nM |
| C/C=C(\C)[C@H]1OC(=O)[C@@H](C)NC(=O)[C@H](C(C)CC)NC(=O)CN(C)C(=O)[C@@H](Cc2ccccc2)N(C)C(=O)[C@H](C)NC(=O)[C@@H](CC(C)C)OC(=O)/C(C)=C/C[C@H](CC(=O)NCCOCCOCCOCCO)[C@@H]1C (some centres unmarked) [Compound 122] | < 20 nM | 20 to 200 nM |  |
| CCC(C)[C@@H]1NC(=O)CN(C)C(=O)[C@@H](Cc2ccccc2)N(C)C(=O)[C@H](C)NC(=O)[C@@H](CC(C)C)OC(=O)/C(C)=C/CCCOC(=O)[C@@H](C)N(C)C1=O (some centres unmarked) [Compound 10] ([dHica]A[dNMeF][Sar][Ile(3ξ)][dNMeA]; linker N-C via X9) | > 10000 nM |  |  |
| CCC(C)[C@@H]1NC(=O)CN(C)C(=O)[C@@H](Cc2ccccc2)N(C)C(=O)[C@H](C)NC(=O)[C@@H](CC(C)C)OC(=O)/C(C)=C/CCCCOC(=O)[C@H](C)NC1=O (some centres unmarked) [Compound 17] ([dHica]A[dNMeF][Sar][Ile(3ξ)]A; linker N-C via X10) | 200 to 10000 nM |  |  |
| C/C=C(\C)[C@H]1OC(=O)[C@@H](C)NC(=O)[C@H]([C@H](C)CC)NC(=O)CN(C)C(=O)[C@@H](Cc2ccccc2)N(C)C(=O)[C@H](C)NC(=O)[C@@H](CC(C)C)OC(=O)/C(C)=C/C[C@H](OC(=O)NCCCCCCNC(=O)OC(C)(C)C)[C@@H]1C [Compound 105] | < 20 nM | < 20 nM |  |
| CCC(C)[C@@H]1NC(=O)CN(C)C(=O)[C@@H](Cc2ccccc2)N(C)C(=O)[C@H](C)NC(=O)[C@@H](CC(C)C)OC(=O)/C(C)=C/CCCOC(=O)[C@H](CCCCNC(=O)OC(C)(C)C)NC1=O (some centres unmarked) [Compound 11] | > 10000 nM |  |  |
| CCC(C)[C@@H]1NC(=O)CN(C)C(=O)[C@@H](Cc2ccccc2)N(C)C(=O)[C@H](C)NC(=O)[C@@H](CC(C)C)OC(=O)/C(C)=C/CCCOC(=O)[C@H](CCCCN)NC1=O (some centres unmarked) [Compound 60] ([dHica]A[dNMeF][Sar][Ile(3ξ)]K; linker N-C via X9) | > 10000 nM |  |  |
